Test [1] deals with Dirofilaria immitis microfilariae. As to the kind of experiment: In Vitro Assay 2: Dirofilaria immitis microfilariae (DIROIM L1) motility. The format is cell-based. The conditions noted are these: 72 h, read-out: EC50 ppm.
Test [2] has as its system Dirofilaria immitis larvae. The test can be described thus: In Vitro Assay 3: Dirofilaria immitis (DIROIM L4) larval motility. The format is cell-based. Particulars: 72 h, read-out: EC50 ppm.
Another test concerns the target C. elegans Slo-1a (Caenorhabditis elegans, UniProt Q95V25).

Converted amounts (≈) assume the structure as drawn.

Chain of C. elegans Slo-1a (Q95V25 whole entry): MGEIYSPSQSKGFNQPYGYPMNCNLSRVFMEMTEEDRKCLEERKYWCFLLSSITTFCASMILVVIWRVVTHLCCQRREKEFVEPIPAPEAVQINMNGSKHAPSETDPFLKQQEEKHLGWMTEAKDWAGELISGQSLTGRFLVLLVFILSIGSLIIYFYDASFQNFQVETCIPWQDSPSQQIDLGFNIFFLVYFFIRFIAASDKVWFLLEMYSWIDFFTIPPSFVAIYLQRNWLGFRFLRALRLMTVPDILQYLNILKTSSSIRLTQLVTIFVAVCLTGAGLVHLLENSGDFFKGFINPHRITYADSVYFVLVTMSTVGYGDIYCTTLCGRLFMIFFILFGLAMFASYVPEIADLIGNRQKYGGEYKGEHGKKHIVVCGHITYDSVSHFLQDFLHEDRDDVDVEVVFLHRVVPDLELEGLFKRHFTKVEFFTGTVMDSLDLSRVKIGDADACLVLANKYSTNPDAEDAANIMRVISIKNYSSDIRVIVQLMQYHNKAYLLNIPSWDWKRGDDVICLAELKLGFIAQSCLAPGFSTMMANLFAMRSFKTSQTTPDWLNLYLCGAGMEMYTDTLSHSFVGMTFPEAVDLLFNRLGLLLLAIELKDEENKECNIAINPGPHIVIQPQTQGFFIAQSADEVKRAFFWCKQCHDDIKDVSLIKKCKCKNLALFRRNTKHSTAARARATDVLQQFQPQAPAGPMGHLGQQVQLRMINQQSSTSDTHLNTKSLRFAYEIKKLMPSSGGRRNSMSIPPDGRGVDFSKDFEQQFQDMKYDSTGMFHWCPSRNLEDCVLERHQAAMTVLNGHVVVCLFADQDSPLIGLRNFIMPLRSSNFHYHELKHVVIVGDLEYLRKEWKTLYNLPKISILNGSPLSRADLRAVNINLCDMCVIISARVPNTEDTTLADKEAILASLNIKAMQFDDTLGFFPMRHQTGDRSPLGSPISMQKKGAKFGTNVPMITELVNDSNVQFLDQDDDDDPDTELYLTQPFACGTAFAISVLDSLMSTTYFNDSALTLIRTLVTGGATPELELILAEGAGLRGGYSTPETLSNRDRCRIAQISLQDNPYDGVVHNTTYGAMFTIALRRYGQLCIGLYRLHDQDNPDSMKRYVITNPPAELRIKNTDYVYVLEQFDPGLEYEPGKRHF
Experimental for C. elegans Slo-1a: Cells were cultured at 37° C. and 5% CO2 in MEMalpha with Gutamax I (Invitrogen, Nr.: 32571), supplemented with 10% (v/v) heat inactivated fetal bovine serum (Invitrogen, Nr.: 10500), G418 (1 mg/ml, Invitrogen, Nr.: 10131). Cells were detached using Accutase (Sigma, Nr.: A6964).
Membrane Potential Measurements
Laboratory compound testing was performed on 384-well microtiter plates (MTPs, Greiner, Nr.: 781092). 8000 cells/well were plated onto 384-well MTPs and cultured for 20 to 24 hours at 37° C. and 5% CO2. After removal of the cell culture medium, the cells were washed once with tyrode (150 mM NaCl, 0.3 mM KCl, 2 mM CaCl2, 1 mM MgCl2, 0.8 mM NaH2PO4, 5 mM Glucose, 28 mM Hepes, pH 7.4) and then loaded with the voltage sensitive dye of the Membrane Potential Assay Kit diluted in tyrode for 1 h at room temperature.
After starting the measurement of fluorescence using a FLIPR Tetra (Molecular Devices, Exc. 510-545 nm, Emm. 565-625 nm), test compounds were added followed by the addition of KCl tyrode (final assay concentration: 70 mM KCl, 2 mM CaCl2, 1 mM MgCl2, 0.8 mM NaH2PO4, 5 mM Glucose, 28 mM Hepes, pH 7.4, including the voltage sensitive dye). The measurement was completed after 7 minutes.

For `CC1=C(C(=O)N[C@H]2CCCc3ccccc32)C(C)c2cccc(-c3cc(F)cc(F)c3F)c2O1` (stereo partly drawn) [Example Compound S8b-2, 2,4-Dimethyl-N-[(1S)-1,2,3,4-tetrahydronaphthalen-1-yl]-8-(2,3,5-trifluorophenyl)-4H-chromene-3-carboxamide], the EC50 is 0.08 µg/mL (≈ 0.173 µM) in test [1], 1.26 µg/mL (≈ 2.72 µM) in test [2] and greater than 50100 nM on C. elegans Slo-1a.

Take `CC(C)c1c(C(=O)N[C@H]2CCOc3ccccc32)sc2c(-c3cccc(Cl)c3Cl)cccc12` [Example Compound S1-3, 7-(2,3-Dichlorophenyl)-N-[(4S)-3,4-dihydro-2H-chromen-4-yl]-3-isopropyl-1-benzothiophene-2-carboxamide]: the figures for the EC50 (in test [1]; in test [2]; at C. elegans Slo-1a) were 0.01 µg/mL (≈ 0.0201 µM), 0.03 µg/mL (≈ 0.0604 µM) and 0.631 nM, respectively.

`CC(C)n1c(C(=O)N[C@H]2CCOc3ccccc32)cc2c(-c3cc(F)cc(F)c3F)cccc21` [Example Compound S2-6, N-[(4S)-3,4-Dihydro-2H-chromen-4-yl]-1-(propan-2-yl)-4-(2,3,5-trifluorophenyl)-1H-indole-2-carboxamide]: the EC50 in test [1] was 0.0086 µg/mL (≈ 0.0185 µM); in test [2], 0.08 µg/mL (≈ 0.172 µM); on C. elegans Slo-1a, 15.8 nM.

In the case of `O=C(N[C@H]1CCOc2ccccc21)C1=Cc2cccc(-c3cccc(Cl)c3Cl)c2OC1` [Example Compound S8a-5, 8-(2,3-Dichlorophenyl)-N-[(4S)-3,4-dihydro-2H-chromen-4-yl]-2H-chromene-3-carboxamide], the EC50 in test [1] was 0.09 µg/mL (≈ 0.199 µM); in test [2] it was 0.04 µg/mL (≈ 0.0884 µM); on C. elegans Slo-1a, 5.01 nM.

`CC1=C(C(=O)N[C@H]2CCc3ccccc32)C(C)c2cccc(-c3cc(Cl)cc(Cl)c3)c2O1` (stereo partly drawn) [Example Compound S8b-1, 8-(3,5-Dichlorophenyl)-N-[(1S)-2,3-dihydro-1H-inden-1-yl]-2,4-dimethyl-4H-chromene-3-carboxamide]: the EC50 in test [1] was 1.47 µg/mL (≈ 3.17 µM); in test [2], greater than 0.4 µg/mL.

Consider `CN(C)c1c(C(=O)N[C@H]2CCOc3ccccc32)cnc2c1cnn2-c1cc(Cl)cc(Cl)c1` [Example Compound S4-4, 1-(3,5-Dichlorophenyl)-N-[(4S)-3,4-dihydro-2H-chromen-4-yl]-4-(dimethylamino)-1H-pyrazolo[3,4-b]pyridine-5-carboxamide], for which the EC50 in test [1] is greater than 2 µg/mL; on C. elegans Slo-1a, 501 nM.

For `Cn1c(C(=O)N[C@H]2CCOc3ccccc32)nc2c(-c3cccc(Cl)c3Cl)ccnc21` [Example Compound S2-1, 7-(2,3-Dichlorophenyl)-N-[(4S)-3,4-dihydro-2H-chromen-4-yl]-3-methyl-3H-imidazo[4,5-b]pyridine-2-carboxamide], the EC50 was 0.63 µg/mL (≈ 1.39 µM) in test [1] and 31.6 nM on C. elegans Slo-1a.

In the case of `CC(C)c1c(C(=O)N[C@H]2CCc3ccccc32)ccc2c1nnn2-c1cccc(C(F)(F)F)c1` [Example Compound S4-9, N-[(1S)-2,3-Dihydro-1H-inden-1-yl]-4-(propan-2-yl)-1-[3-(trifluoromethyl)phenyl]-1H-benzotriazole-5-carboxamide], the EC50 in test [1] was greater than 2 µg/mL; at C. elegans Slo-1a it was 1580 nM.

For the compound `CN(C)c1c(C(=O)N[C@H]2CCOc3ccccc32)sc2c(-c3cc(Cl)cc(Cl)c3)cccc12` [Example Compound S1-5, 7-(3,5-Dichlorophenyl)-N-[(4S)-3,4-dihydro-2H-chromen-4-yl]-3-(dimethylamino)-1-benzothiophene-2-carboxamide], the EC50 in test [1] was 0.25 µg/mL (≈ 0.503 µM); at C. elegans Slo-1a it was 25.1 nM.

Take `CC(C)c1c(C(=O)N[C@H]2CCc3ccccc32)ccc2c1nnn2-c1ccccc1Cl` [Example Compound S4-10, 1-(2-Chlorophenyl)-N-[(1S)-2,3-dihydro-1H-inden-1-yl]-4-(propan-2-yl)-1H-benzotriazole-5-carboxamide]: the EC50 in test [1] was greater than 2 µg/mL; at C. elegans Slo-1a it was 3160 nM.

In the case of `CC(C)c1c(C(=O)N[C@H]2CCc3ccccc32)ccc2c1nnn2-c1cccc(Cl)c1` [Example Compound S4-8, 1-(3-Chlorophenyl)-N-[(1S)-2,3-dihydro-1H-inden-1-yl]-4-(propan-2-yl)-1H-benzotriazole-5-carboxamide], the EC50 was greater than 2 µg/mL in test [1] and 10000 nM on C. elegans Slo-1a.

By EC50 is commonly meant the concentration needed to bring the measured effect to its halfway point.

The record behind these values is patent US12435068B2, “Anthelmintic compounds” (Elanco Animal Health GmBh, priority 2018, dated 2025).
